What was measured:
[1] = Pharmacokinetics of 5-MeO-DMT and bufotenine after a single inhaled dose; assay type: in vivo, human
Method: Blood samples were obtained at 1; 2; 4; 7; 10; 15; 20; 30; 45 min and 1; 1.5; 2; 3; 4 hours after administration.
PK parameters were generated by algebraic analysis of the concentration versus time plots for each individual. The analysis was carried out using the software Phoenix WinNonlin 6.3.

[2] = test system: Escherichia coli (WP2 uvrA pKM101); assay: Bacterial mutation test with and without S-9; assay type: cell-based; settings: up to 5000 μg/plate, absence and presence of S-9
Method: (§1) These conditions included treatments at concentrations up to 5000 μg/plate (the maximum recommended concentration according to current regulatory guidelines), in the absence and in the presence of a rat liver metabolic activation system (S-9).

[3] = test system: Salmonella typhimurium (TA98, TA100, TA1535 and TA1537); assay: Bacterial mutation test with and without S-9; assay type: cell-based; settings: up to 5000 μg/plate, absence and presence of S-9
Method: as §1

[4] = test system: patients with postpartum depression (PPD); assay: Open-label clinical trial of inhaled 5-MeO-DMT (single-day IDR) in postpartum depression; one patient so far, received 6 mg then 12 mg
Method: The single-arm, open-label clinical trial will involve 15 adult female patients with clinically diagnosed postpartum depression (PPD).
The second dose (12 mg) will only be administered if: • a. […] The 6 mg dose was safe and well-tolerated according to the investigator, • c. Any psychoactive effects (PsE) of the prior dose have subsided, and • d. Pre-dose vital parameters and forced expiratory volume in one second (FEV1) are in normal range, or if outside of the normal range, are not clinically significant according to the investigator. • 3. Similarly, a third dose (18 mg) will only be administered if: • a. […] The 12 mg dose was safe and well-tolerated according to the investigator, and • c. Any PsE of the prior dose have subsided, and • d. Pre-dose vital parameters and forced expiratory volume in one second (FEV1) are in normal range, or if outside of the normal range, are not clinically significant according to the investigator.
The patients will be assessed for a peak psychedelic experience (based on a patient-scored visual analogue scale, the PE scale), sedation, and other endpoints after dosing.
Follow-up visits are planned for Day 1, and Day 7 after the dosing day.
The following criteria must be met by all patients considered for clinical trial participation: • 1. Is female and in the age range between 18 and 45 years (inclusive) at screening. • 2. Has a body mass index (BMI) in the range of 18.5 and 35 kg/m^2 (inclusive) at screening. • 3. Meets the trial criteria for PPD as assessed by a trial psychiatrist or registered psychologist: • a. Diagnosis of Major Depressive Disorder without psychotic features, confirmed by the Mini-International Neuropsychiatric Interview (MINI), with peri-partum onset that began no earlier than gestation and no later than the first 4 weeks postpartum. • b. Has a Montgomery-Åsberg Depression Rating Scale (MADRS) total score of equal to or greater than 28 at screening and pre-dose on Day 0. • 6. […] Patients must have a negative pregnancy test at screening and on the pre-test day (Day-1). • 5. Is willing to delay start of other antidepressant or anxiety medication until after the end of the trial at Day 7 and agrees to keep any psychotherapy unchanged during the trial.

Structure (SMILES): COc1ccc2[nH]cc(CCN(C)C)c2c1 [5-MeO-DMT]
- Detectability in plasma ([1]; after 3 hours, 6, 12, 18 mg): no longer detectable
- Accumulation upon repeated administration ([1]; within a time frame of 1 to 4 hours): No accumulation
- Mutation induction [2]: did not induce mutation
- Mutation induction [3]: did not induce mutation
- ECG (3 hours), safety laboratory analyses (7 days), CADSS (3 hours, 1 day, 7 days) ([4]; n=1): unremarkable
- MADRS response (>=50% improvement) and remission (total <=10) criteria ([4]; n=1): fulfilled standard criteria for MADRS response
- Onset of clinical response ([4]; n=1): ≤ 2 h
- Time to clinical remission ([4]; n=1): ≤ 2 h
- Tolerability of inhalation procedure ([4]; n=1): well tolerated with no inhalation-related adverse events
- Total MADRS improvement ([4]; n=1, 2 hr): 24
- Total MADRS score ([4]; n=1, 2 hr, baseline 29): 5
- Reported adverse events (cramping left abdominal pain, headache) ([4]; n=1, Day 0): mild, short-lasting and resolved spontaneously
- BPRS Tension improvement ([4]; n=1, Day 1): 5
- Total MADRS improvement ([4]; n=1, Day 1): 29
- Total MADRS score ([4]; n=1, Day 1, baseline 29): 0
- Total MADRS improvement ([4]; n=1, Day 7): 28
- BIMF functional domain Adjustment score ([4]; n=1, Day 7, Day 0 5, maximum 12): 6
- BIMF functional domain Self-Care score ([4]; n=1, Day 7, Day 0 9, maximum 18): 13
- BIMF functional domain Infant Care score ([4]; n=1, Day 7, Day 0 12, maximum 12): 12
- BIMF functional domain Mother-Child Interaction score ([4]; n=1, Day 7, Day 0 15, maximum 18): 17
- BIMF functional domain Social Support score ([4]; n=1, Day 7, Day 0 17, maximum 18): 18
- BIMF functional domain Management score ([4]; n=1, Day 7, Day 0 28, maximum 36): 33
- BIMF functional domain Psychological Well-being score ([4]; n=1, Day 7, Day 0 44, maximum 60): 53
- BIMF item 19 (As time goes on, I am getting better at taking care of my baby) score ([4]; n=1, Day 7, Day 0 score 0): 1
- BIMF item 16 (I worry about how other people judge me (as a mother)) score ([4]; n=1, Day 7, Day 0 score 3): 5
- BIMF item 13 (I am taking good care of my physical needs) score ([4]; n=1, Day 7, Day 0 score 4): 5
- BIMF item 5 (I am able to relax and enjoy time with my baby) score ([4]; n=1, Day 7, Day 0 score 5): 6
- BIMF item 9 (I am getting enough encouragement from other people) score ([4]; n=1, Day 7, Day 0 score 5): 6
- BIMF item 10 (I trust my own feelings (instincts) when it comes to taking care of my baby) score ([4]; n=1, Day 7, Day 0 score 5): 6
- BIMF item 11 (I take a little time each week to do something for myself) score ([4]; n=1, Day 7, Day 0 score 5): 6
- BIMF item 17 (I am able to take care of my baby and my other responsibilities) score ([4]; n=1, Day 7, Day 0 score 5): 5
- BIMF item 3 (I am comfortable with the way I've chosen to feed my baby) score ([4]; n=1, Day 7, Day 0 score 6): 6
- BIMF item 6 (There are people in my life that I can trust to care for my baby when I need a break) score ([4]; n=1, Day 7, Day 0 score 6): 6
- BIMF item 8 (I am getting enough adult interaction) score ([4]; n=1, Day 7, Day 0 score 6): 6
- BIMF item 12 (I am taking good care of my baby's physical needs) score ([4]; n=1, Day 7, Day 0 score 6): 6
- BIMF item 14 (I make good decisions about my baby's health and well being) score ([4]; n=1, Day 7, Day 0 score 6): 6
- BIMF item 20 (I am satisfied with the job I am doing as a new mother) score ([4]; n=1, Day 7, Day 0 score 6): 5
- Total MADRS score ([4]; n=1, Day 7, baseline 29): 1
- BIMF total score improvement ([4]; n=1, Day 7, from 92): 14%
- BIMF TOTAL Δ ([4]; n=1, Day 7 vs Day 0): 13
- BIMF functional domain Adjustment % Improvement ([4]; n=1, Day 7 vs Day 0): 20.00%
- BIMF functional domain Adjustment Δ ([4]; n=1, Day 7 vs Day 0): 1
- BIMF functional domain Infant Care % Improvement ([4]; n=1, Day 7 vs Day 0): 0.00%
- BIMF functional domain Infant Care Δ ([4]; n=1, Day 7 vs Day 0): 0
- BIMF functional domain Management % Improvement ([4]; n=1, Day 7 vs Day 0): 18%
- BIMF functional domain Management Δ ([4]; n=1, Day 7 vs Day 0): 5
- BIMF functional domain Mother-Child Interaction Δ ([4]; n=1, Day 7 vs Day 0): 2
- BIMF functional domain Psychological Well-being Δ ([4]; n=1, Day 7 vs Day 0): 9
- BIMF functional domain Self-Care % Improvement ([4]; n=1, Day 7 vs Day 0): 44%
- BIMF functional domain Self-Care Δ ([4]; n=1, Day 7 vs Day 0): 4
- BIMF functional domain Social Support Δ ([4]; n=1, Day 7 vs Day 0): 1
- BIMF item 1 (I am a good mother) Δ ([4]; n=1, Day 7 vs Day 0): 0
- BIMF item 2 (I feel rested) Δ ([4]; n=1, Day 7 vs Day 0): 2
- BIMF item 3 (I am comfortable with the way I've chosen to feed my baby) Δ ([4]; n=1, Day 7 vs Day 0): 0
- BIMF item 4 (My baby and I understand each other) Δ ([4]; n=1, Day 7 vs Day 0): 0
- BIMF item 5 (I am able to relax and enjoy time with my baby) Δ ([4]; n=1, Day 7 vs Day 0): 1
- BIMF item 6 (There are people in my life that I can trust to care for my baby when I need a break) Δ ([4]; n=1, Day 7 vs Day 0): 0
- BIMF item 8 (I am getting enough adult interaction) Δ ([4]; n=1, Day 7 vs Day 0): 0
- BIMF item 9 (I am getting enough encouragement from other people) Δ ([4]; n=1, Day 7 vs Day 0): 1
- BIMF item 10 (I trust my own feelings (instincts) when it comes to taking care of my baby) Δ ([4]; n=1, Day 7 vs Day 0): 1
- BIMF item 11 (I take a little time each week to do something for myself) Δ ([4]; n=1, Day 7 vs Day 0): 1
- BIMF item 12 (I am taking good care of my baby's physical needs) Δ ([4]; n=1, Day 7 vs Day 0): 0
- BIMF item 13 (I am taking good care of my physical needs) Δ ([4]; n=1, Day 7 vs Day 0): 1
- BIMF item 14 (I make good decisions about my baby's health and well being) Δ ([4]; n=1, Day 7 vs Day 0): 0
- BIMF item 15 (My baby and I are getting into a routine) Δ ([4]; n=1, Day 7 vs Day 0): 1
- BIMF item 16 (I worry about how other people judge me (as a mother)) Δ ([4]; n=1, Day 7 vs Day 0): 2
- BIMF item 17 (I am able to take care of my baby and my other responsibilities) Δ ([4]; n=1, Day 7 vs Day 0): 0
- BIMF item 18 (Anxiety or worry often interferes with my mothering ability) Δ ([4]; n=1, Day 7 vs Day 0): 3
- BIMF item 19 (As time goes on, I am getting better at taking care of my baby) Δ ([4]; n=1, Day 7 vs Day 0): 1
- BIMF item 20 (I am satisfied with the job I am doing as a new mother) Δ ([4]; n=1, Day 7 vs Day 0): −1
- BPRS Tension improvement ([4]; n=1, Discharge): 5
- Vital parameters ([4]; n=1, shortly after administration): temporary, clinically non-relevant increase in heart rate and blood pressure

Source: patent publication US20250241894A1, “TREATMENT OF MENTAL DISORDERS” (GH RESEARCH IRELAND LIMITED, priority 2022, published 2025)
